Test results reported in paper PMC9916163, “Evaluation of the Cytotoxic Effect of Pd2Spm against Prostate Cancer through Vibrational Microspectroscopies” (International Journal of Molecular Sciences, 2023).
Like-named read-outs stand apart in the source and are kept apart here.

Tests used:
[1] = system: LNCaP cell line; assay: MTT cytotoxicity assay, LNCaP cells; format: cell-based, human; settings: prostate cancer cells, read-out: Half maximal inhibitory concentration (IC50) LNCaP
Experimental: (§1) The human prostate cancer (PC-3 and LNCaP) and non-tumorigenic (PNT-2) cell lines were obtained from the ECCAC Culture Collections and supplied by Sigma-Aldrich Chemical S.A. (Sintra, Portugal). They were cultured as monolayers, at 37 °C, in a humidified atmosphere of 5% CO2. The cultures were maintained in RPMI-1640 culture medium, supplemented with 10% (v/v) heat-inactivated FBS and 1% (v/v) penicillin/streptomycin. The cells were subcultured at 80% confluence, using 0.05% trypsin-EDTA (1×) in PBS.
(§2) For all cell lines (PC-3, LNCaP and PNT-2), cell cultures were established in 96-well plates (100 µL/well) at a density of 3 × 10^4 cells/cm^2, and were allowed to attach for 24 h. Triplicates were treated for different incubation periods (three independent experiments) with a range of concentrations between 2 and 32 µM of the tested compounds (cisplatin and Pd2Spm). According to the population doubling time for all cell lines (ca. 24 h), 24, 48, and 72 h timepoints after drug administration were chosen.
(§3) In order to evaluate cell viability, the MTT assay was used. Briefly, at each time-point, the growth media was removed, cells were washed with PBS and MTT solution (2.5 mg/mL) was added to each well (100 µL). After 3 h of incubation at 37 °C, the formazan crystals were solubilized in DMSO (100 µL), and the absorbance was measured at 570 nm.
(§4) Cells viability data results are expressed as mean ± standard error of the mean (SEM) and compared with non-treated controls. Statistical analysis was carried out through one-way ANOVA followed by Tukey’s multiple comparison test. A p-value < 0.05 was considered statistically significant.

[2] = system: PNT-2 cell line; assay: MTT cytotoxicity assay, PNT-2 cells; format: cell-based, human; settings: prostate non-cancer cells, read-out: Half maximal inhibitory concentration (IC50) PNT-2
Experimental: as §1, §2
In order to evaluate cell viability, the MTT assay was used. […] After 3 h of incubation at 37 °C, the formazan crystals were solubilized in DMSO (100 µL), and the absorbance was measured at 570 nm.
Cells viability data results are expressed as mean ± standard error of the mean (SEM) and compared with non-treated controls. […]

[3] = system: PNT-2; set-up: method as in PMID 34277574; settings: 96 h, MTT method; read-out: Value previously reported (IC50) PNT-2; cited from earlier work
[4] = system: LNCaP; set-up: method as in PMID 17541592; settings: 48 h, SRB method; read-out: Value previously reported (IC50) LNCaP; cited from earlier work
[5] = system: PC-3 cell line; assay: MTT cytotoxicity assay, PC-3 cells; format: cell-based, human; settings: prostate cancer cells, read-out: Half maximal inhibitory concentration (IC50) PC-3
Experimental: as §1, §2, §3, §4

[6] = system: PC-3; set-up: method as in PMID 17541592; settings: 72 h, SRB method; read-out: Value previously reported (IC50) PC-3; cited from earlier work
[7] = system: PC-3; set-up: method as in PMID 24366574; settings: 48 h, MTT method; read-out: Value previously reported (IC50) PC-3; cited from earlier work

## N.N.[Cl][Pt][Cl] [Cisplatin, cis-dichlorodiammine platinum(II)]
[1]; 24 h incubation
  IC50: 13.6 µM
[1]; 48 h incubation
  IC50: 7.3 µM
[1]; 72 h incubation
  IC50: 2.7 µM
[2]; 48 h incubation
  IC50: 5.2 µM
[2]; 72 h incubation
  IC50: 2.4 µM
[3]
  IC50: 8.5 µM
[4]
  IC50: 3.7 µM
[5]; 24 h incubation
  IC50: 25.6 µM
[5]; 48 h incubation
  IC50: 3 µM
[5]; 72 h incubation
  IC50: 0.7 µM
[6]
  IC50: 1 µM
[7]
  IC50: 10.6 µM
